Reference: patent US12590099B2, “Inhibitors of histone deacetylase useful for the treatment or prevention of HIV infection” (Merck Sharp & Dohme LLC, priority 2018, dated 2026)

What was measured:
Format in all cases: biochemical
[1] = target: T1, HDAC6 (Homo sapiens, UniProt Q9UBN7); assay: Human HDAC enzyme inhibitor Fluor-de-Lys assay, HDAC6
T1 sequence (Q9UBN7 1-1215): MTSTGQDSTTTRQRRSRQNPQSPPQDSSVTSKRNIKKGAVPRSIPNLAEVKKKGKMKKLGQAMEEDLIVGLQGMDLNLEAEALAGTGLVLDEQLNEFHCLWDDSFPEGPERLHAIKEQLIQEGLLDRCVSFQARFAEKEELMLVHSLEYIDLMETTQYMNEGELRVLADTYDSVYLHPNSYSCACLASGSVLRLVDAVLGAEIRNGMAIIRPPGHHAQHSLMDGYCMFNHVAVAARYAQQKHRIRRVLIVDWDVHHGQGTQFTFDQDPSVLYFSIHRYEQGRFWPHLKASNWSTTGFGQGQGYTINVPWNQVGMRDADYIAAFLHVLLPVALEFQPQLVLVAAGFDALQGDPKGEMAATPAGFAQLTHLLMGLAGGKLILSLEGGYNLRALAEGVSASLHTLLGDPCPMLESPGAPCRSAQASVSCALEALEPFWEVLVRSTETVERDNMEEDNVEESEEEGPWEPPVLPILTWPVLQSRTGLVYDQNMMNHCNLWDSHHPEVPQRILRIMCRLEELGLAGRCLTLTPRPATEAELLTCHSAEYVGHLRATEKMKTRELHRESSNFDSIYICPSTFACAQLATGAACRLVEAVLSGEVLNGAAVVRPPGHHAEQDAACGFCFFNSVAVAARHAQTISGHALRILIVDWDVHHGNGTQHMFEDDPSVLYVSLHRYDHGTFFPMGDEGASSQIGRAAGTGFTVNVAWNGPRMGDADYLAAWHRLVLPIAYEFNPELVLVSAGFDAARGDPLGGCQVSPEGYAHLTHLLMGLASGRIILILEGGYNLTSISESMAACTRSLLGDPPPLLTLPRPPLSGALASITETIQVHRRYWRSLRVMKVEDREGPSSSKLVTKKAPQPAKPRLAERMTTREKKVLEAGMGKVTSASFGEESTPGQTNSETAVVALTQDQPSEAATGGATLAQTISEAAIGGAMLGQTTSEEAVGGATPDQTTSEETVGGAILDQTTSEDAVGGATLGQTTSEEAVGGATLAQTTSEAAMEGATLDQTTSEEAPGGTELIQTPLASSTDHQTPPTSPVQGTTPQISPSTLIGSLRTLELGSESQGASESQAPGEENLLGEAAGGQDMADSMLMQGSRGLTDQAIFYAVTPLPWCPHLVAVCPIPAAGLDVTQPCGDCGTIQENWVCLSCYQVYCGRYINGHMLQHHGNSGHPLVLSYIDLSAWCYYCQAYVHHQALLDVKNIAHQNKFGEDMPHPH

[2] = target: T2, Recombinant human HDAC1 (Homo sapiens, UniProt Q13547); assay: Human HDAC enzyme inhibitor Fluor-de-Lys assay, HDAC1
T2 construct: FLAG (C); made in house
Procedure: Human HDAC Enzyme Inhibitor Fluor-De-Lys Assay
Recombinant human HDAC8 (BML-SE145-0100) and HDAC10 (BML-SE559-0050) enzymes, HDAC substrates BML-KI104 and BML-KI178, and HDAC developer solutions BML-KI105 and BML-KI176 were purchased from Enzo Life Sciences. […] HDAC inhibitor suberoylanilide hydroxamic acid (SAHA) was obtained from Indofine and trichostatin A (TSA) was obtained from Sigma-Aldrich.
Recombinant human HDAC1, HDAC2, and HDAC3/SMRT heterodimer were prepared by Merck Research Laboratories. […] The eluted protein was then passed over an anti-HDAC1 immunoaffinity column to remove any complexes containing HDAC1. […]
The histone deacetylase activities of HDAC1, HDAC2, HDAC3, HDAC6, and HDAC8 were measured in modified FLUOR DE LYS assays in 384-well format. In this assay, HDAC enzymes are initially incubated with an ε-acetyl (or -trifluoroacetyl)-L-lysine-containing substrate with a C-terminal amide having aminomethylcoumarin as the amine component. HDACs cleave the ε-acetyl group, rendering the resulting product susceptible to AMC cleavage by trypsin. The released AMC is then detected by its fluorescence.
The HDAC3/SMRT assay employed buffer B, consisting of 20 mM HEPES, pH 8.0, 1 mM MgCl2, 50 mM NaCl, 2.7 mM KCl, 0.05% BSA, 0.005% Tween 20, and 10 μM IP4. […] The HDAC8 assay employed buffer D, consisting of 20 mM HEPES, pH 8.0, 1 mM MgCl2, 100 mM NaCl, 20 mM KCl, 0.10% n-octyl-β-D-glucoside (Anatrace) and 0.05% BSA. All steps were performed at room temperature (23° C.). The assay was performed by pre-incubating serial dilutions of test compounds with the target HDAC prior to initiation with substrate. Each compound was titrated in a 10-point dose response, using a 1:3 fold dilution scheme, with 0.15 ul of solution added by ECH0555 to the plate, followed by the addition of 20 μl of the appropriate HDAC isoform diluted in appropriate assay buffer. […] Final conditions used for each assay were: 1. HDAC 1, 0.3 nM total enzyme, 20 μM substrate BML-KI104; 2. […] HDAC 3/SMRT, 0.3 nM total enzyme, 20 μM substrate BML-KI104; 4. […] The reactions were stopped and developed by addition of 30 ul of HDAC developer solution containing a saturating level of HDAC inhibitor as follows: 1.

[3] = target: T3, Recombinant human HDAC3/SMRT heterodimer (Homo sapiens, UniProt O15379); assay: Human HDAC enzyme inhibitor Fluor-de-Lys assay, HDAC3/SMRT
T3 construct: FLAG (C); made in house

[4] = target: T4, Recombinant human HDAC8 (Homo sapiens, UniProt Q9BY41); assay: Human HDAC enzyme inhibitor Fluor-de-Lys assay, HDAC8
T4 construct: purchased Enzo Life Sciences BML-SE145-0100
T4 sequence (Q9BY41 1-377): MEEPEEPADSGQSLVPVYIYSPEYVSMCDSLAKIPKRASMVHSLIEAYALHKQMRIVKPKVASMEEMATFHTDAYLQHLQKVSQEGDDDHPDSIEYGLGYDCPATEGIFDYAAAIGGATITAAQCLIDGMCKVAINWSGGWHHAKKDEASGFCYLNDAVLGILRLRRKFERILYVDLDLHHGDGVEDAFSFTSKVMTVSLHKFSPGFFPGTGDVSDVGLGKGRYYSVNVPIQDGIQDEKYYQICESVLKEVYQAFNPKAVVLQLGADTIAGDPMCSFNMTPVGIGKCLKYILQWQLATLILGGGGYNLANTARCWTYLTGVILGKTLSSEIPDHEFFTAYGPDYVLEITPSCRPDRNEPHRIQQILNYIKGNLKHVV

T3 sequence (O15379 whole entry): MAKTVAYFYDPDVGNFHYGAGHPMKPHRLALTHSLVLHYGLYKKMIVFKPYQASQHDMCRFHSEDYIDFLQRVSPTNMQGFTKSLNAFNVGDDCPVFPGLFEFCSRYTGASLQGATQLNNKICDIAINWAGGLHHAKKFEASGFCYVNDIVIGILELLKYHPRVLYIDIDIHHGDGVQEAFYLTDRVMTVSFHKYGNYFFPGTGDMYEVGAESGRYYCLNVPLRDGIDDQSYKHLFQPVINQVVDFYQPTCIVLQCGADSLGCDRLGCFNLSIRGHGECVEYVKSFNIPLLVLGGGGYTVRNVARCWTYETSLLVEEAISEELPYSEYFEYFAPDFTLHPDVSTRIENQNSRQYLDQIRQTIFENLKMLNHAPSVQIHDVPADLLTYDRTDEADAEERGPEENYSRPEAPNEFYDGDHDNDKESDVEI
T3 sequence (Q9Y618 1-899 partner limits assumed): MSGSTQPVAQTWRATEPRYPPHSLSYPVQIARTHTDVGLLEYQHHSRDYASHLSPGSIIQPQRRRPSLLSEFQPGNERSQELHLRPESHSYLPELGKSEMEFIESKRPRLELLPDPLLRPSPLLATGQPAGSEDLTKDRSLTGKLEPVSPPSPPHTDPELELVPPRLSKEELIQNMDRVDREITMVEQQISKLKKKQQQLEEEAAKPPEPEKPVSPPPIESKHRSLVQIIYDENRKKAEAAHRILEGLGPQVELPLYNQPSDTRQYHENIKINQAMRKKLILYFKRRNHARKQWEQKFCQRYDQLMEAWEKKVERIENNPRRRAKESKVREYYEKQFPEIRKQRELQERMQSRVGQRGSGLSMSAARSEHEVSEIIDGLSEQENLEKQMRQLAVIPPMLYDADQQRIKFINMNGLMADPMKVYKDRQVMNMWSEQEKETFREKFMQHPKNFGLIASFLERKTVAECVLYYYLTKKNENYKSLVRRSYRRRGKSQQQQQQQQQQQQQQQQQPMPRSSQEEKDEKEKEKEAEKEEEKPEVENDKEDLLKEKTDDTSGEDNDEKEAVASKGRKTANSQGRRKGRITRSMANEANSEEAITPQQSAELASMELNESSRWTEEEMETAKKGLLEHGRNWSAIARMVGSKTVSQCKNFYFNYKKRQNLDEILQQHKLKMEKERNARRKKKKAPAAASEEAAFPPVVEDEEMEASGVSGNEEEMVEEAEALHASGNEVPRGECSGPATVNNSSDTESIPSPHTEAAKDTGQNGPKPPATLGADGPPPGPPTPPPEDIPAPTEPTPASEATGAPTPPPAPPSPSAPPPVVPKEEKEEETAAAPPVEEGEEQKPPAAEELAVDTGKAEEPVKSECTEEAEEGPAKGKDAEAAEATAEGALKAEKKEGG
T2 sequence (Q13547 whole entry): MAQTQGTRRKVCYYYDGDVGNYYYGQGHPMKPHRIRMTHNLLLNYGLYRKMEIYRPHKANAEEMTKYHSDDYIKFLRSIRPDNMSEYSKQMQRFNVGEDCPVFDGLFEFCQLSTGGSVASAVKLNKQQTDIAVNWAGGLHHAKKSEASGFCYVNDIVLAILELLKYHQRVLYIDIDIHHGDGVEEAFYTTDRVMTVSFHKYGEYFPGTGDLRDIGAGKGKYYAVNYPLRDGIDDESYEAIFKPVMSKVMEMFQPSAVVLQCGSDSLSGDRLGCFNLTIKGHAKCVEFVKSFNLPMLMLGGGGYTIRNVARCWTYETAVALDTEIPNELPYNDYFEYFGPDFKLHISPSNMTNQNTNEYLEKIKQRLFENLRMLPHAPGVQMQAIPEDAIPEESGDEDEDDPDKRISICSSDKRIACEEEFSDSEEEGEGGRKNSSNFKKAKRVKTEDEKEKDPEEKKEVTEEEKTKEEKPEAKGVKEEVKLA

How did the IC50 [1] turn out when CCC(=O)CCCCC[C@H](NC(=O)[C@H]1CC12CCN(CC)CC2)c1ncc(-c2ccc3nc(C4CC4)ccc3c2)[nH]1 [Compound 101] was run?
Its IC50 is 7370 nM.

What about the IC50 [2] of the same compound?
The IC50 was under 1.5 nM.

What about the IC50 [3] of the same compound?
The IC50 was under 1.5 nM.

And the IC50 [4]?
The IC50 was 6650 nM.

With CCC(=O)CCCCC[C@H](NC(=O)[C@H]1CC12CCN(CC1CC1)CC2)c1ncc(-c2ccc3nc(C4CC4)ccc3c2)[nH]1 [Compound 104] as the compound, how does the IC50 [1] read?
The IC50 was 5300 nM.

And the IC50 [2]?
The IC50 was under 1.5 nM.

And the IC50 [3]?
The IC50 was under 1.5 nM.

And the IC50 [4]?
Its IC50 is 5020 nM.

CCC(=O)CCCCC[C@H](NC(=O)C1=NOC2(CCN(C(C)C)CC2)C1)c1ncc(-c2cc3ccccc3nc2OC)[nH]1 [Compound 106, N-{(1S)-1-[5-(2-methoxyquinolin-3-yl)-1H-imidazol-2-yl]-7-oxononyl}-8-(1-methylethyl)-1-oxa-2,8-diazaspiro[4.5]dec-2-ene-3-carboxamide] was tested. Which IC50 [1] did it give?
Its IC50 is 1460 nM.

And the IC50 [2]?
Its IC50 is 1.73 nM.

And the IC50 [3]?
Its IC50 is under 1.5 nM.

What about the IC50 [4] of the same compound?
Its IC50 is 2780 nM.

What does the source list for CCC(=O)CCCCC[C@H](NC(=O)[C@H]1CC12CCN(C)CC2)c1ncc(-c2ccc3c(ccc(=O)n3C)c2)o1 [Compound 109]?
IC50 [1]: 13400 nM; IC50 [2]: 3.52 nM; IC50 [3]: 2.98 nM; IC50 [4]: > 15000 nM

How did the IC50 [1] turn out when CCC(=O)CCCCC[C@H](NC(=O)[C@H]1CC12CCN(C)CC2)c1ncc(-c2ccc3cnc(OC)cc3c2)[nH]1 [Compound 113] was run?
The IC50 was over 4500 nM.

And the IC50 [2]?
Its IC50 is 1.37 nM.

And the IC50 [3]?
Its IC50 is 1.42 nM.

What about the IC50 [4] of the same compound?
Its IC50 is 2180 nM.

Which results are given for CCC(=O)CCCCC[C@H](NC(=O)[C@H]1CC12CCN(CC)CC2)c1ncc(-c2ccc3nc(C4CC4)ccc3c2)o1 [Compound 114]?
IC50 [1]: 4090 nM; IC50 [2]: 1.12 nM; IC50 [3]: 1.04 nM; IC50 [4]: 27000 nM

Which results are given for CCC(=O)CCCCC[C@H](NC(=O)[C@H]1CC12CCN(CC1CC1)CC2)c1ncc(-c2ccc3nc(C4CC4)ccc3c2)o1 [Compound 115]?
IC50 [1]: 4290 nM; IC50 [2]: < 1.5 nM; IC50 [3]: < 1.5 nM; IC50 [4]: 15400 nM

What does the source list for CCC(=O)CCCCC[C@H](NC(=O)[C@H]1CC12CCN(C(C)C)CC2)c1ncc(-c2ccc3nc(C4CC4)ccc3c2)o1 [Compound 116]?
IC50 [1]: 4730 nM; IC50 [2]: 4.37 nM; IC50 [3]: 3.88 nM; IC50 [4]: > 15000 nM

How did the IC50 [1] turn out when CCC(=O)CCCCC[C@H](NC(=O)[C@H]1CC12CCN(C)CC2)c1ncc(-c2ccc3nc(C4CC4)ccc3c2)o1 [Compound 121] was run?
The IC50 was 4810 nM.

What about the IC50 [2] of the same compound?
Its IC50 is 1.39 nM.

And the IC50 [3]?
Its IC50 is 1.16 nM.

What about the IC50 [4] of the same compound?
The IC50 was 15300 nM.

What does the source list for CCC(=O)CCCCC[C@H](NC(=O)[C@H]1CC[C@]2(CC1)OC(=O)c1ncccc12)c1ncc(-c2ccc3nc(C4CC4)ccc3c2)o1 [Compound 122]?
IC50 [1]: > 45000 nM; IC50 [2]: 56.7 nM; IC50 [3]: 20.5 nM; IC50 [4]: 29300 nM
